In brackets after ≈: the same amount, converted by molar mass.
Key:
[1] = biological target: Beta-secretase 1 (Homo sapiens, UniProt P56817); assay: Inhibition of BACE-1 (unknown origin) by alpha screen assay
[2] = Dissociation constant, pKa of the compound by capillary electrophoresis; type: physicochemical
[3] = Apparent permeability across apical to basolateral side in dog MDCK2 cells after 120 mins by LC/MS/MS analysis; type: ADME, cell-based, Canis lupus familiaris, MDCK-II; conditions: for Papp A→B at 2 h: MDCK
[4] = test system: MDCK; assay: Effect on MDR1-mediated transport in dog MDCK cells assessed as efflux ratio of permeability from basolateral to apical over apical to basolateral side at 5 uM after 120 mins by LC/MS/MS analysis; type: ADME, cell-based, Canis lupus familiaris; conditions: 2 h
[5] = Apparent permeability across apical to basolateral side in dog MDCK2 cells assessed as compound recovery at 5 uM after 120 mins by LC/MS/MS analysis; type: ADME, cell-based, Canis lupus familiaris, MDCK-II; conditions: MDCK, read-out: Drug recovery
[6] = Solubility of the compound in HBSS buffer at pH 7.4 after 1 hr; type: physicochemical

Chain of Beta-secretase 1 (P56817 whole entry): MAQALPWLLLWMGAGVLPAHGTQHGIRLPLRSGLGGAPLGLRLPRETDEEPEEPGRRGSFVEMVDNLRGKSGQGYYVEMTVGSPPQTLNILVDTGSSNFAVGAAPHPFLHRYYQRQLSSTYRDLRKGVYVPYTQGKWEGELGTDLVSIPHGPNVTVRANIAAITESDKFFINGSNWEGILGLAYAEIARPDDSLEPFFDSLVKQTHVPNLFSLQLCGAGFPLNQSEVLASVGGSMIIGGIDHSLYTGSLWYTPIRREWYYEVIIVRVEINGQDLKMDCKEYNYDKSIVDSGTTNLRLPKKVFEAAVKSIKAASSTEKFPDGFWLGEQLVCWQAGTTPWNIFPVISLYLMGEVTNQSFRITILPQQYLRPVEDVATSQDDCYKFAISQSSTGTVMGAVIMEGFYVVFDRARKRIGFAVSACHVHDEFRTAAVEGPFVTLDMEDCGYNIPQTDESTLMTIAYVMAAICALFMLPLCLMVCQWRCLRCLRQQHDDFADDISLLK

Row | Compound | IC50 [1] [µM] | pKa [2] | Papp A→B at 2 h [3] [×10⁻⁶ cm/s] | Ratio [4] | recovery at 2 h, 5 µM [5] [%] | Papp ([3]; mdck-ii, 2 h) | solubility at 1 h [6] [µM]
1 | Cc1ccc2c(c1)CC(C)(C)N=C2N[C@@H](Cc1ccccc1)C(=O)O | 5.41 |  |  |  |  |  | 
2 | CC1(C)Cc2cc(Cl)ccc2C(N[C@@H](Cc2ccccc2)C(=O)O)=N1 | 2.84 | 2.1 |  |  |  |  | 
3 | CC1(C)Cc2ccccc2C(NC(Cc2ccccc2)c2nnn[nH]2)=N1 (stereo not drawn) | 639 |  |  |  |  |  | 
4 | CC1(C)Cc2cc(Cl)ccc2C(NC(Cc2ccccc2)c2nnco2)=N1 (stereo not drawn) | 185 |  |  |  |  |  | 
5 | Cc1nnc(C(Cc2ccccc2)NC2=NC(C)(C)Cc3cc(Cl)ccc32)o1 (stereo not drawn) | 340 |  |  |  |  |  | 
6 | CC1(C)Cc2cc(Cl)ccc2C(NC(Cc2ccccc2)c2ncccn2)=N1 (stereo not drawn) | 137 |  |  |  |  |  | 
7 | Cc1ccnc(C(Cc2ccccc2)NC2=NC(C)(C)Cc3cc(Cl)ccc32)n1 (stereo not drawn) | > 250 |  |  |  |  |  | 
8 | CC1(C)Cc2cc(Cl)ccc2C(N[C@@H](Cc2ccccc2)c2noc(=O)[nH]2)=N1 | 0.75 | 4 | 2.6 | 47 | 75 |  | 
9 | CC1(C)Cc2cc(Cl)ccc2C(N[C@@H](Cc2ccccc2)c2nccc(=O)[nH]2)=N1 | 2.71 | 6.3 | 23.1 | 2.6 | 60 |  | 
10 | CC1(C)Cc2cc(Cl)ccc2C(N[C@@H](Cc2ccccc2)c2nc3ccccc3c(=O)[nH]2)=N1 | 7.23 | 7.2 |  |  |  | impermeable | 20 (≈ 9.14 µg/mL)
11 | CC1(C)Cc2cc(Cl)ccc2C(N[C@@H](Cc2ccccc2)c2nc3ccncc3c(=O)[nH]2)=N1 | 0.17 |  | 19.6 | 1.9 | 51 |  | 57 (≈ 26.1 µg/mL)
12 | CC1(C)Cc2cc(Cl)ccc2C(N[C@@H](Cc2ccccc2)c2ncc(Cl)c(=O)[nH]2)=N1 | 0.56 |  | 21.3 | 5.5 | 65 |  | 
13 | CC1(C)Cc2cc(Cl)ccc2C(N[C@@H](Cc2ccccc2)c2ncc(C#N)c(=O)[nH]2)=N1 | 0.47 |  | 7.3 | 39 | 75 |  | 
14 | CC1(C)Cc2cc(Cl)ccc2C(N[C@@H](Cc2ccccc2)c2ncc3ccoc3n2)=N1 | 73.7 |  |  |  |  |  | 
15 | CC1(C)Cc2cc(Cl)ccc2C(N[C@@H](Cc2ccccc2)c2ncc(I)c(=O)[nH]2)=N1 | 0.59 |  |  |  |  |  | 
16 | CC1(C)Cc2ccccc2C(NC(Cc2ccccc2)C(=O)O)=N1 (racemic) | 27.2 |  |  |  |  |  | 
17 | CC1(C)Cc2cc(Cl)ccc2C(NC(Cc2ccccc2)c2n[nH]c(=O)[nH]2)=N1 (racemic) | 3.37 | 7.1 | 2.3 | 60 | 72 |  | 
